Values joined by “and” are separate entries in the source; they are usually repeats but may differ in a detail not shown here. Identical values can stand only once. Bounds are passed on as bounds.

In test [1] the target is T1, C-terminal domain (CTD) of human STING (Homo sapiens, UniProt Q86WV6). Kind of test: STING binding FP assay I. Details: recombinant human STING protein (155-379). To be noted: 35 nM STING, 4 nM Probe 1. Here is the method:
The interaction between molecules and the C-terminal domain (CTD) of human STING was evaluated using a competition binding assay. In this assay, recombinant human STING protein (155-379) and a STING binding fluorescent probe were employed. Upon binding of the probe to STING, the rotation of the fluorescent probe is slowed due to the larger molecular size of the protein-bound complex. As a result, emitted light retains its plane of polarization, leading to an increase in fluorescence polarization. Molecules competing for the probe binding site displace the probe, which leads to rapid randomization of the polarization plane of the emitted light and a subsequent decrease in measured fluorescence polarization signal. Change in polarization was measured, allowing a comparative evaluation of the binding affinities of different compounds to the target protein.
The assay was performed in 96-well plates (ThermoFisher, cat.# 237108) containing 100µl : 10 µL test compound in 10% DMSO and buffer A (150 mM NaCl, 50 mM HEPES pH 7.5, 1 mM DTT) + 90 µL prepared master mix solution of: 4 nM fluorescein-labelled STING ligand (Probe 1; synthesis described above) in buffer A + 0.055% Tween-20 (v/v) and 35 nM STING in buffer A. Post mixing, plates were agitated at 600rpm and incubated for 20 min at room temperature. Subsequent measurements of the fluorescence polarization signal were made on a BioTek Synergy-H1 plate reader, using a polarization filter; Exc: 485/20 nm, Em: […]) with a gain-setting of 75. IC50 values were determined using a standard non-linear regression four-parameter curve fit in Graphpad Prism.
Target sequence in this assay (Q86WV6 155-379): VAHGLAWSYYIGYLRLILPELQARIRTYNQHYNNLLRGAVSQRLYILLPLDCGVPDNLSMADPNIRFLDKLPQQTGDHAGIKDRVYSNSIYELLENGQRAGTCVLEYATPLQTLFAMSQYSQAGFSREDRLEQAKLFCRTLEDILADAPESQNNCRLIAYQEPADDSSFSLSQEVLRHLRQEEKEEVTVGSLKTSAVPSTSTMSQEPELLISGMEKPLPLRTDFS

The target in test [2] is T1, C-terminal domain (CTD) of human STING. As to the kind of experiment: STING binding TR-FRET assay. Conditions: Human STING WT Binding Kit (CisBio). Details: purchased CisBio 64BDSTGPEG
Here is the method: The affinity of molecules to the C-terminal domain (CTD) of human STING was determined using a commercial Human STING WT Binding Kit (CisBio, cat.# 64BDSTGPEG). In this time-resolved FRET assay, a recombinant human STING protein construct with a His-tag was employed. When bound to STING, a D2-labeled active site probe accepts the 620 nm emission from Anti-HIS-Tb-STING and an increase in fluorescence is measured at 665 nm. Molecules that compete for the probe binding site will result in a low 665 nm signal. The assay was run in CisBio low-volume white 96-well plates (catalog# 66PL96005) containing 5 µL compounds in Diluent Buffer (supplied with the CisBio kit). A solution of 1xSTING, 1x Anti-HIS-Tb and 1X D2-probe in TB detection buffer (kit supplied) was added to the plate. Plates were centrifuged for 2 min at 500 rpm, incubated for 60 min at room temperature in the dark, and then fluorescence emission at 665 nm following 330 nm xenon flash excitation on an BioTek synergy H1 multimode reader (Agilent) was measured. The plC50 values were determined using a standard four parameter curve fit in GraphPad Prism.
A general note: Time-resolved FRET reads energy transfer from a long-lived donor to a nearby acceptor.
Target sequence in this assay (Q86WV6 135-379 limits assumed): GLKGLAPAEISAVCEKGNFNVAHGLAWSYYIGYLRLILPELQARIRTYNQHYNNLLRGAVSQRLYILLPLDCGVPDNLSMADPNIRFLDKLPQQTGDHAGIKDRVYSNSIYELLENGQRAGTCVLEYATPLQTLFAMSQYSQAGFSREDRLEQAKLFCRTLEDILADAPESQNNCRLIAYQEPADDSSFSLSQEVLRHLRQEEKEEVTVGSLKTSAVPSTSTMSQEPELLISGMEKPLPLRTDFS

In test [3] the target is T2, STING (Homo sapiens, UniProt Q86WV6). Kind of test: Inhibition of STING-agonist-induced IFN-β and CXCL10 release by Compounds A9 and A11. The format is cell-based. Details: host or cells: HFF-1 human foreskin fibroblasts. Here is the method: HFF-1 cells were also assessed for inhibition of STING-agonist-induced IFN-β and CXCL10 release in cells treated with Compounds A9 and A11. […] In contrast, pre-treating cells for 1 to 2 hours prior to diABZI c3, simultaneous treatment with A9 and diABZI c3, or pre-treating cells for 15 minutes with diABZI c3 followed by A9 treatment led to a decrease in the IFN media concentration to ~100 U/mL. […] In contrast, cells pre-treated for 1 to 2 hours prior to diABZI c3, simultaneous treatment with A9 and diABZI c3, or pre-treating cells for 15 minutes with diABZI c3 followed by A9 treatment led to a decrease in the CXCL10 media concentration to […] (Figure 9B, unfiled bars).
T2 sequence (Q86WV6 whole entry): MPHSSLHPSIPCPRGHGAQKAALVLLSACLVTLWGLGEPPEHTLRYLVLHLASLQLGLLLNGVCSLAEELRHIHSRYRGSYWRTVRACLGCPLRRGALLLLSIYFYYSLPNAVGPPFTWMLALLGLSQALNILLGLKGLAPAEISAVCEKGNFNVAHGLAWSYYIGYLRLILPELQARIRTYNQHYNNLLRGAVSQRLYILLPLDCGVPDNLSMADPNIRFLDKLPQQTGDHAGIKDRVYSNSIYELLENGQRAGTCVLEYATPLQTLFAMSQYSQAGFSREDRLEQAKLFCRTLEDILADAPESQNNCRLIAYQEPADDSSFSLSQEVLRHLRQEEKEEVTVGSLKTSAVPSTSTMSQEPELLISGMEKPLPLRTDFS
In contrast, pre-treating cells for 1 to 2 hours prior to diABZI c3, simultaneous treatment with A11 and diABZI c3, or pre-treating cells for 15 minutes with diABZI c3 followed by A11 treatment led to a decrease in the IFN media concentration to -10 - 20 U/mL. […] In contrast, cells pre-treated for 1 to 2 hours prior to diABZI c3, simultaneous treatment with A11 and diABZI c3, or pre-treating cells for 15 minutes with diABZI c3 followed by A11 treatment led to a decrease in the CXCL10 media concentration to -10 - 20 pg/mL (Figure 9B; filled bars).

Test [4] deals with T3, STING (Mus musculus, UniProt Q3TBT3).
T3 sequence (Q3TBT3 1-378): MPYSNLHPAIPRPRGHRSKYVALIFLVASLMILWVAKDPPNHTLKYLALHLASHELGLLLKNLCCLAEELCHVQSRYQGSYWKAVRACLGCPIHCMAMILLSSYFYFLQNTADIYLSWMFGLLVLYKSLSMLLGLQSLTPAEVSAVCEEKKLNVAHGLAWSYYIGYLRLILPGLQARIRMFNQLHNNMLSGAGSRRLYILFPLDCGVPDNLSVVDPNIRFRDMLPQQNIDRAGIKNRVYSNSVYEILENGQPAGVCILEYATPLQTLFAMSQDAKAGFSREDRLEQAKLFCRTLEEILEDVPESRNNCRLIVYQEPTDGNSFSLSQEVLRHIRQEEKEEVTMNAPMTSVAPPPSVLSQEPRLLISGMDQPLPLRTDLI
Kind of test: IFN-β secretion from mouse RAW264.7 cells treated with diABZI. To be noted: 1.8 µM diABZI c3 only. On the set-up: endogenous in cells; host or cells: RAW264.7 mouse cells. Type of test: cell-based. How it is done: As expected, RAW264.7 cells treated with 1.8 µM diABZI c3 increased IFN-β secretion, resulting in a media concentration of around 1000 pg/mL. In contrast, cells treated with 1.8 µM diABZI c3 and 0.05 µM Example compounds 14, 16 or 24 reduced this expression to approximately 500 pg/mL.

Test [5] deals with T2, STING. As to the kind of experiment: Western Blot analysis of STING phosphorylation in human fibroblast cells (STING agonism). Details: host or cells: HFF-1 human foreskin fibroblasts. The format is cell-based. To be noted: control, 300nM diABZI C3 alone. Here is the method: Human fibroblast were treated with a titration of E22, E9, E14 and E16 (7.2µM-3.6nM) for 24h prior to cell lysis and subsequently total STING, pSTING and Vinculin were assessed by western blot using rabbit anti-STING (1:1000), anti-pSTING (1:1000), anti-Vinculin (1:1000) and 2nd anti-rabbit-HRP (1:10.000) or anti-mouse-HRP (1:7500). Proteins were visualized using ImageQuant800. Control cells included untreated cells and cells treated with 300nM diABZI C3.
A general note: Immunoblotting shows a protein as a band on a membrane.

In test [6] the target is T2, STING. Kind of test: Western Blot analysis of inhibition of STING activation in HFF-1 cells. Type of test: cell-based. Conditions: agonist only (-): 300 nM diABZI c3 or 8 µg/mL cGAMP. Details: host or cells: HFF-1 human foreskin fibroblasts. Here is the method:
To assess whether S1 STING ligands inhibit STING activation, primary human skin fibroblasts (Figure 5) or HFF-1 cells (Figure 6) were treated with various compounds which comprise only an S1 ligand domain and a Linker domain before undergoing Western Blot analysis as described below.
The cells were lysed and analysed on WB. […] The WB membrane was probed for p-STING, STING, p-IRF3, p-TBK1, and Vinculin.

As for `CCOC(=O)COC(CCn1c(=NC(=O)c2cc(C)nn2CC)n(C)c2cc(C(N)=O)ccc21)CCn1c(=NC(=O)c2cc(C)nn2CC)n(C)c2cc(C(N)=O)ccc21` (stereo not shown) [Building Block G-2, Ethyl (3-{5-carbamoyl-2-[(1-ethyl-3-methyl-5-pyrazolyl)carbonylimino]-3-methyl-2,3-dihydro-1H-1,3-benzimidazol-1-yl}-1-(2-{5-carbamoyl-2-[(1-ethyl-3-methyl-5-pyrazolyl)carbonylimino]-3-methyl-2,3-dihydro-1H-1,3-benzimidazol-1-yl}ethyl)propoxy)acetate], the IC50 was under 30 nM in test [1] and 0.452 nM in test [2].
Turning to `CCn1nc(C)cc1C(=O)Nc1nc2cc(C(N)=O)cc(OC)c2n1C/C=C/Cn1c(NC(=O)c2cc(C)nn2CC)nc2cc(C(N)=O)cc(OCCCN3CCOCC3)c21.Cl.Cl.Cl` [diABZI c3, (E)-1-(4-(5-carbamoyl-2-(1-ethyl-3-methyl-1H-pyrazole-5-carboxamido)-7-(3-morpholinopropoxy)-1H-benzo[d]imidazol-1-yl)but-2-en-1-yl)-2-(1-ethyl-3-methyl-1H-pyrazole-5-carboxamido)-7-methoxy-1H-benzimidazole-5-carboxamide tris(hydrochloride), reference compound], the CXCL10 media concentration in test [3] (cells treated with diABZI c3 alone (0.3 µM)) is ~ 60 pg/mL. Further, the IFN media concentration in test [3] (cells treated with only diABZI c3 (0.3 µM), tris(hydrochloride)) is ~ 200 U/mL and ~ 100 U/mL. For the same compound, the IFN-β media concentration result in test [4] is given as “around 1000 pg/mL”. The “STING phosphorylation (pSTING)” value in test [5] is “STING was phosphorylated”. In test [6], the “phosphorylation of STING, IRF3 and TBK1” value was “STING was phosphorylated and activated as were the downstream STING effectors IRF3 and TBK1”.

As a reminder, the IC50 is the concentration needed to halve the response being measured.

The values above are taken from patent EP4663632A1, “COMPOUNDS USEFUL FOR THE MODULATION OF THE ACTIVITY OF STING” (Sulis Therapeutics ApS, priority 2024, dated 2025).
